Test results from ChEMBL document CHEMBL3046141, “Partition coefficient determination of a series of isoindolines-2-substituted and its correlation with their antiproliferative activity on HeLa cells” (Med Chem Res, 2013).

Tests used:
HeLa [1] = experiment: Cytotoxicity against Homo sapiens (human) HeLa cells assessed as metabolic active cells after 24 hr by MTT assay; type: functional, cell-based
[2] = n-octanol-water partition coefficient, log P of the compound by shake-flask method; type: physicochemical
HeLa [3] = experiment: Cytotoxicity against Homo sapiens (human) HeLa cells assessed as cell viability after 24 hr by crystal violet staining; type: functional, cell-based

Row | Compound | IC50 (HeLa [1]) [mM] | logP [2] | IC50 (HeLa [3]) [mM]
1 | COC(=O)[C@H](c1ccccc1)N1Cc2ccccc2C1 | 8.25 | 1.35 | 5.32
2 | CC(C)C[C@@H](C(=O)O)N1Cc2ccccc2C1 | 4.56 | 0.114 | 4.3
3 | O=C(O)[C@H](c1ccccc1)N1Cc2ccccc2C1 | 9.48 | -0.31 | 7.07
4 | COC(=O)[C@H](CC(C)C)N1Cc2ccccc2C1 | 2.56 | 0.065 | 3.16
5 | COC(=O)CN1Cc2ccccc2C1 | 8.23 | -0.027 | 3.65
6 | COC(=O)[C@H](Cc1c[nH]c2ccccc12)N1Cc2ccccc2C1 | 9.71 | 1.45 | 8.44
7 | O=C(O)CN1Cc2ccccc2C1 | 8.74 | -0.229 | 5.62
8 | O=C(O)[C@H](Cc1c[nH]c2ccccc12)N1Cc2ccccc2C1 | 7.6 | 0.347 | 8.82
